Test results published in patent publication US8802700B2 (Vertex Pharmaceuticals Incorporated, priority 2010, dated 2014).

Biological target: T1, ΔF508-CFTR (Homo sapiens, UniProt P13569, DEL508-508)
T1 construct: expressed in transfected cells
Assay: Membrane potential optical assay (FRET voltage-sensor dyes, VIPR), identification of potentiator compounds
Type: cell-based
Details: Table 3; assay not given; read-out: % Activity (% Efficacy, relative efficacy)
Text: The optical membrane potential assay utilized voltage-sensitive FRET sensors described by Gonzalez and Tsien (See Gonzalez, J. E. and R. Y. Tsien (1995) “Voltage sensing by fluorescence resonance energy transfer in single cells” Biophys J 69(4): 1272-80, and Gonzalez, J. E. and R. Y. Tsien (1997) “Improved indicators of cell membrane potential that use fluorescence resonance energy transfer” Chem Biol 4(4): 269-77) in combination with instrumentation for measuring fluorescence changes such as the Voltage/Ion Probe Reader (VIPR) (See […]. Oades, et al. (1999) “Cell-based assays and instrumentation for screening ion-channel targets” Drug Discov Today 4(9): 431-439). These voltage sensitive assays are based on the change in fluorescence resonant energy transfer (FRET) between the membrane-soluble, voltage-sensitive dye, DiSBAC2(3), and a fluorescent phospholipid, CC2-DMPE, which is attached to the outer leaflet of the plasma membrane and acts as a FRET donor. Changes in membrane potential (Vm) cause the negatively charged DiSBAC2(3) to redistribute across the plasma membrane and the amount of energy transfer from CC2-DMPE changes accordingly. The changes in fluorescence emission were monitored using VIPRTM II, which is an integrated liquid handler and fluorescent detector designed to conduct cell-based screens in 96- or 384-well microtiter plates. To identify potentiators of ΔF508-CFTR, a double-addition HTS assay format was developed. During the first addition, a Cl^--free medium with or without test compound was added to each well. […] (in mM) NaCl 160, KCl 4.5, CaCl2 2, MgCl2 1, HEPES 10, pH 7.4 with NaOH. • Chloride-free bath solution: Chloride salts in Bath Solution #1 are substituted with gluconate salts. • CC2-DMPE: Prepared as a 10 mM stock solution in DMSO and stored at -20° C. • DiSBAC2(3): Prepared as a 10 mM stock in DMSO and stored at -20° C. NIH3T3 mouse fibroblasts stably expressing ΔF508-CFTR are used for optical measurements of membrane potential. […] For all optical assays, the cells were seeded at 30,000/well in 384-well matrigel-coated plates and cultured for 2 hrs at 37° C. before culturing at 27° C. for 24 hrs. for the potentiator assay.

T1 sequence (P13569 with tags, fused parts or gaps DEL508-508): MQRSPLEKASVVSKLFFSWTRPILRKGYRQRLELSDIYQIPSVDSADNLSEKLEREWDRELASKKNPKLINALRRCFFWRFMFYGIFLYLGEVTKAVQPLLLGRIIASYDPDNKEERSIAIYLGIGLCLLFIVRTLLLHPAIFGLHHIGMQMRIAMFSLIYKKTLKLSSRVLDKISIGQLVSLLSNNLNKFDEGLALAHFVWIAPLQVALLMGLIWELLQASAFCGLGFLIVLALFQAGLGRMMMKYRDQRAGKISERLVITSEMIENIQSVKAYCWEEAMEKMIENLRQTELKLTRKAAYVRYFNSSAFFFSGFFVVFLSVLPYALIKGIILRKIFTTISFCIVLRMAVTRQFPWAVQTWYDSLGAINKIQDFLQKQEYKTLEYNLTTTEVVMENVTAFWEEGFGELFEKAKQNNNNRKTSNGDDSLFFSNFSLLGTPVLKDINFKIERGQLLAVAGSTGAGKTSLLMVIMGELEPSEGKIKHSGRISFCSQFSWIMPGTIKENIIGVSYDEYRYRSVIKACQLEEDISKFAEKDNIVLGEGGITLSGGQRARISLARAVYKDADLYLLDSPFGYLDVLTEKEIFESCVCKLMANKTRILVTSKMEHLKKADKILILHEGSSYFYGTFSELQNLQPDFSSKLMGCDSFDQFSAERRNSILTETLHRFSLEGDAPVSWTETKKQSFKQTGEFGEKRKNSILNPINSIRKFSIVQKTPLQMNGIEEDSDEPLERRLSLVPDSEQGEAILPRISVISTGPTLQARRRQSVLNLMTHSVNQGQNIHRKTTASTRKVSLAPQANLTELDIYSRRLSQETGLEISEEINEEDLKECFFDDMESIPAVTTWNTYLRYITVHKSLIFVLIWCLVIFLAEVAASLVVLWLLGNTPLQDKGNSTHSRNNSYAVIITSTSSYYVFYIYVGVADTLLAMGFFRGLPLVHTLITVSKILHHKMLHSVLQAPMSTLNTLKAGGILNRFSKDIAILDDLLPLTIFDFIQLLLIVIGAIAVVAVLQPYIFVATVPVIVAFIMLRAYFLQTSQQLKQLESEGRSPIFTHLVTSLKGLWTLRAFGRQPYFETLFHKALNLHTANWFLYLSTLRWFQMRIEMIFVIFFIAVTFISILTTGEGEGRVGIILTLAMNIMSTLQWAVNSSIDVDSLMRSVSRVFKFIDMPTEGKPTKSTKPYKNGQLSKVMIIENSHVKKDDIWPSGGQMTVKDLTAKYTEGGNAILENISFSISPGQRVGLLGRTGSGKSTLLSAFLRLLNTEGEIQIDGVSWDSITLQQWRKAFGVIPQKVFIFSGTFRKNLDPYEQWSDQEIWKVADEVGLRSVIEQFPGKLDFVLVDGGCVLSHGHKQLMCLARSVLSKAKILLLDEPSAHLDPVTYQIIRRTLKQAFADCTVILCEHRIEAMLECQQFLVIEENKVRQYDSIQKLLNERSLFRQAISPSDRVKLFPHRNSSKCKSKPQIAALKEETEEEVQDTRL

Compound	Emax [%]
CCc1cc(C(C)(C)C)c(O)cc1NC(=O)c1c[nH]c2ccc(F)cc2c1=O [Compound 649, N-(2-ethyl-5-hydroxy-4-tert-butyl-phenyl)-6-fluoro-4-oxo-1H-quinoline-3-carboxamide]	25 to 100
O=C(Nc1ccc(C(F)(F)F)cc1)c1c[nH]c2ccccc2c1=O [Compound 236, 4-oxo-N-[4-(trifluoromethyl)phenyl]-1H-quinoline-3-carboxamide]	25 to 100
O=C(Nc1ccccc1-c1ccccc1)c1c[nH]c2ccccc2c1=O [Compound 461, 4-oxo-N-(2-phenylphenyl)-1H-quinoline-3-carboxamide]	25 to 100
CC(C)(C)c1ccc(NC(=O)c2c[nH]c3ccccc3c2=O)cc1OCCO [Compound 458, N-[3-(2-hydroxyethoxy)-4-tert-butyl-phenyl]-4-oxo-1H-quinoline-3-carboxamide]	25 to 100
CC(C)(C)OC(=O)Nc1ccc(NC(=O)c2c[nH]c3ccccc3c2=O)c(C(F)(F)F)c1 [Compound 600, tert-butyl [[4-[(4-oxo-1H-quinolin-3-yl)carbonylamino]-3-(trifluoromethyl)phenyl]amino]formate]	25 to 100
CC1CCN(S(=O)(=O)c2ccc3[nH]cc(C(=O)Nc4cc5[nH]ccc5cc4C(C)(C)C)c(=O)c3c2)CC1 [Compound 51, 6-[(4-methyl-1-piperidyl)sulfonyl]-4-oxo-N-(5-tert-butyl-1H-indol-6-yl)-1H-quinoline-3-carboxamide]	25 to 100
O=C(Nc1ccc(-c2ccccc2CNC(=O)C(F)(F)F)cc1)c1c[nH]c2ccccc2c1=O [Compound 224, 4-oxo-N-[4-[2-[(2,2,2-trifluoroacetyl)aminomethyl]phenyl]phenyl]-1H-quinoline-3-carboxamide]	25 to 100
CCCc1ccc(NC(=O)c2c[nH]c3ccccc3c2=O)cc1N [Compound 160, N-(3-amino-4-propyl-phenyl)-4-oxo-1H-quinoline-3-carboxamide]	25 to 100
CC(C)c1ccc(NC(=O)c2c[nH]c3ccccc3c2=O)cc1O [Compound 575, N-(3-hydroxy-4-isopropyl-phenyl)-4-oxo-1H-quinoline-3-carboxamide]	25 to 100
COC(=O)[C@@H]1[C@@H](C)CCN1c1ccc(NC(=O)c2c[nH]c3ccccc3c2=O)c(C(F)(F)F)c1 [Compound 530, (2S,3S)-methyl 3-methyl-1-(4-(4-oxo-1,4-dihydroquinoline-3-carboxamido)-3-(trifluoromethyl)phenyl)pyrrolidine-2-carboxylate]	25 to 100
CCOc1cccc2c(=O)c(C(=O)Nc3cc(O)c(C(C)(C)C)cc3F)c[nH]c12 [Compound 526, 8-ethoxy-N-(2-fluoro-5-hydroxy-4-tert-butyl-phenyl)-4-oxo-1H-quinoline-3-carboxamide]	< 25
CCCOc1ccc(NC(=O)c2c[nH]c3ccccc3c2=O)cc1N [Compound 368, N-(3-amino-4-propoxy-phenyl)-4-oxo-1H-quinoline-3-carboxamide]	25 to 100
Cc1cc2cc(NC(=O)c3c[nH]c4ccccc4c3=O)ccc2[nH]1 [Compound 230, N-(2-methyl-1H-indol-5-yl)-4-oxo-1H-quinoline-3-carboxamide]	25 to 100
O=C(Nc1ccc(N2CCC(CO)CC2)cc1C(F)(F)F)c1c[nH]c2ccccc2c1=O [Compound 668, N-[4-[4-(hydroxymethyl)-1-piperidyl]-2-(trifluoromethyl)phenyl]-4-oxo-1H-quinoline-3-carboxamide]	25 to 100
O=C(Nc1ccccc1-c1ccc(F)c(Cl)c1)c1c[nH]c2ccccc2c1=O [Compound 190, N-[2-(3-chloro-4-fluoro-phenyl)phenyl]-4-oxo-1H-quinoline-3-carboxamide]	25 to 100
CC(C)c1ccc(NC(=O)c2c[nH]c3ccc(Cl)cc3c2=O)c(C(F)(F)F)c1 [Compound 657, 6-chloro-N-[4-isopropyl-2-(trifluoromethyl)phenyl]-4-oxo-1H-quinoline-3-carboxamide]	25 to 100
CC(C)(C)c1cc(F)c(NC(=O)c2c[nH]c3cccc(F)c3c2=O)cc1O [Compound 610, 5-fluoro-N-(2-fluoro-5-hydroxy-4-tert-butyl-phenyl)-4-oxo-1H-quinoline-3-carboxamide]	25 to 100
Cc1cc(N2CCCC2)ccc1NC(=O)c1c[nH]c2ccccc2c1=O [Compound 615, N-(2-methyl-4-pyrrolidin-1-yl-phenyl)-4-oxo-1H-quinoline-3-carboxamide]	> 100

Compound	Emax [%]
CC1=NN(c2cccc(NC(=O)c3c[nH]c4ccccc4c3=O)c2)C(=O)C1 [Compound 212, N-[3-(3-methyl-5-oxo-1,4-dihydropyrazol-1-yl)phenyl]-4-oxo-1H-quinoline-3-carboxamide]	< 25
COc1ccc2c(=O)c(C(=O)Nc3ccc(N4CCC[C@@H]4C)cc3C(F)(F)F)c[nH]c2c1 [Compound 642, (S)-7-methoxy-N-(4-(2-methylpyrrolidin-1-yl)-2-(trifluoromethyl)phenyl)-4-oxo-1,4-dihydroquinoline-3-carboxamide]	25 to 100
O=C(Nc1ccc2[nH]c(=O)[nH]c2c1)c1c[nH]c2ccccc2c1=O [Compound 64, 4-oxo-N-(2-oxo-1,3-dihydrobenzoimidazol-5-yl)-1H-quinoline-3-carboxamide]	< 25
C=Cc1ccc(NC(=O)c2c[nH]c3ccccc3c2=O)cc1 [Compound 452, 4-oxo-N-(4-vinylphenyl)-1H-quinoline-3-carboxamide]	25 to 100
COC(=O)[C@@H]1[C@H]2C[C@H]2CN1c1ccc(NC(=O)c2c[nH]c3ccccc3c2=O)c(C(F)(F)F)c1 [Compound 531, (1S,2S,5R)-methyl 3-(4-(4-oxo-1,4-dihydroquinoline-3-carboxamido)-3-(trifluoromethyl)phenyl)-3-azabicyclo[3.1.0]hexane-2-carboxylate]	25 to 100
CC(C)n1cc(C(=O)Nc2ccccc2)c(=O)c2ccccc21 [Compound 29, 1-isopropyl-4-oxo-N-phenyl-1H-quinoline-3-carboxamide]	25 to 100
CC(C)(C)c1cc(C(C)(C)C)c(C(F)F)cc1NC(=O)c1c[nH]c2ccccc2c1=O [Compound 438, N-[5-(difluoromethyl)-2,4-ditert-butyl-phenyl]-4-oxo-1H-quinoline-3-carboxamide]	25 to 100
Cc1ccc2c(c1)c(=O)c(C(=O)Nc1ccccc1)cn2C [Compound 394, 1,6-dimethyl-4-oxo-N-phenyl-1H-quinoline-3-carboxamide]	< 25
O=C(Nc1ccc(C(F)(F)F)c(O)c1)c1c[nH]c2ccccc2c1=O [Compound 506, N-[3-hydroxy-4-(trifluoromethyl)phenyl]-4-oxo-1H-quinoline-3-carboxamide]	25 to 100
CC(C)(C)c1cc(F)c(NC(=O)c2c[nH]c3c(C#N)cccc3c2=O)cc1O [Compound 519, 8-cyano-N-(2-fluoro-5-hydroxy-4-tert-butyl-phenyl)-4-oxo-1H-quinoline-3-carboxamide]	25 to 100
CC(C)(C)OC(=O)[C@@H]1CCCN1c1ccc(NC(=O)c2c[nH]c3ccccc3c2=O)c(C(F)(F)F)c1 [Compound 629, (S)-tert-butyl 1-(4-(4-oxo-1,4-dihydroquinoline-3-carboxamido)-3-(trifluoromethyl)phenyl)pyrrolidine-2-carboxylate]	25 to 100
O=C(Nc1ccccc1-c1ccc(Cl)cc1)c1c[nH]c2ccccc2c1=O [Compound 424, N-[2-(4-chlorophenyl)phenyl]-4-oxo-1H-quinoline-3-carboxamide]	25 to 100
CC(C)(C)c1cc(C(C)(C)C)c(NC(=O)c2c[nH]c3cc(C#N)ccc3c2=O)cc1O [Compound 548, 7-cyano-N-(5-hydroxy-2,4-ditert-butyl-phenyl)-4-oxo-1H-quinoline-3-carboxamide]	25 to 100
O=C(Nc1ccc(OC(F)(F)F)cc1Cl)c1c[nH]c2ccccc2c1=O [Compound 628, N-[2-chloro-4-(trifluoromethoxy)phenyl]-4-oxo-1H-quinoline-3-carboxamide]	25 to 100
CC(C)(C)c1ccc(NC(=O)c2c[nH]c3ccccc3c2=O)cc1N1CCCC1 [Compound 707, 4-oxo-N-(3-pyrrolidin-1-yl-4-tert-butyl-phenyl)-1H-quinoline-3-carboxamide]	25 to 100
O=C(Nc1cc2[nH]ccc2cc1C(F)(F)F)c1c[nH]c2cccc(O)c2c1=O [Compound 494, 5-hydroxy-4-oxo-N-[5-(trifluoromethyl)-1H-indol-6-yl]-1H-quinoline-3-carboxamide]	25 to 100
COc1nc(NC(=O)c2c[nH]c3ccccc3c2=O)ccc1C(F)(F)F [Compound 571, N-[6-methoxy-5-(trifluoromethyl)-2-pyridyl]-4-oxo-1H-quinoline-3-carboxamide]	< 25
